Test results taken from US7875587B2, “Peptide analogues of GIP for treatment of diabetes, insulin resistance and obesity” (UUTECH Limited, priority 2004, dated 2011).
No end group written: not given here.

Assays:
[1] = tested on: obese diabetic ob/ob mice; test: Chronic (11 days, s.c.) (Pro3)GIP administration in obese diabetic ob/ob mice; type: in vivo, mouse
Method: Effects of chronic (Pro^3)GIP administration on plasma glucose, insulin and glycated HbA1c in obese diabetic ob/ob mice and normal mice. Obese diabetic ob/ob mice and normal control mice aged 8-12 weeks were randomly divided into groups which received once daily subcutaneous injections (17:00 h) of either saline (0.9% w/v NaCl) or (Pro^3)GIP (25 nmol/kg body weight in saline). After 11 days, treatment was ceased. Food intake and body weight were recorded daily. Blood samples were collected from the cut tip of the tail of conscious mice into chilled fluoride/heparin coated glucose microcentrifuge tubes (Sarstedt, Numbrecht, Germany). Blood samples were immediately centrifuged using a Beckman microcentrifuge (Beckman Instruments, UK) for 30 seconds at 13000 g prior to glucose, insulin and HbA1c determinations.
Effects of chronic treatment with (Pro^3)GIP on glucose tolerance in ob/ob mice and normal mice. Plasma glucose and insulin concentrations were measured following intraperitoneal administration of glucose (18 mmol/kg body weight) in ob/ob and normal mice treated with either saline (0.9% w/v NaCl) or (Pro^3)GIP (25 nmol/kg body weight/day) for 11 days. This test was repeated 9 days after cessation of chronic (Pro^3)GIP treatment. Blood samples were collected from the cut tip of the tail of conscious mice into chilled fluoride/heparin microcentrifuge tubes (Sarstedt, Numbrecht, Germany) immediately prior to injection and at 15, 30 and 60 minutes post injection. Blood samples were immediately centrifuged using a Beckman microcentrifuge (Beckman Instruments, UK) for 30 seconds at 13000 g and stored at −20° prior to glucose and insulin determinations.
Effects of chronic treatment with (Pro^3)GIP on the glucose lowering effects of exogenous insulin in ob/ob mice. The glucose lowering effects of insulin were evaluated by measuring plasma glucose response in 11-day saline (0.9% w/v NaCl) and (Pro^3)GIP (25 nmol/kg body weight/day) treated ob/ob mice following acute intraperitoneal administration of insulin (50 U/kg bodyweight). Blood samples were collected from the cut tip of the tail of conscious mice into chilled fluoride/heparin microcentrifuge tubes (Sarstedt, Numbrecht, Germany) immediately prior to injection and at 30 and 60 minutes post injection. Blood samples were immediately centrifuged using a Beckman microcentrifuge (Beckman Instruments, UK) for 30 seconds at 13000 g and stored at −20° prior to glucose determination.
Effects of chronic treatment with (Pro^3)GIP on pancreatic insulin content and associated islet hypertrophy in ob/ob mice. Pancreatic tissue was excised from non-fasted ob/ob mice after 11 days treatment with either saline (0.9% w/v NaCl) or (Pro^3)GIP (25 nmol/kg body weight/day). Pancreatic samples were individually wrapped in aluminium foil and snap frozen in liquid nitrogen. Individual excised pancreatic samples were then either embedded, sectioned and immunohistochemically stained for insulin or permeabilised for determination of pancreatic insulin content.
Determination of HbA1c, plasma glucose and insulin concentrations. HbA1c was measured in whole blood by ion-exchange high-performance liquid chromatography using the Menari HA-8140 kit (BIOMEN, Berkshire, UK). Plasma glucose was assayed by an automated glucose oxidase procedure using a Beckman Glucose Analyzer II (Stevens, J. F., 1971, Clinica Chemica Acta 32:199-201) and plasma insulin was determined by RIA (Flatt, P. R. et al., 1981, Diabetologia 20:573-577). Incremental areas under plasma glucose and insulin curves (AUC) were calculated using a computer generated program (CAREA) employing the trapezoidal rule (Burington, R. S., 1973, Handbook of Mathematical Tables and Formulae, New York, McGraw Hill) with baseline subtraction.

human GIP receptor = biological target: T1, human GIP receptor (Homo sapiens, UniProt P48546); test: GIP-stimulated cyclic AMP generation in GIP receptor transfected CHL cells (antagonism); type: cell-based; conditions: in the presence of native GIP (10^-7 M)
T1 construct: expressed in transfected cells; host or cells: Chinese hamster lung (CHL) fibroblasts, stably transfected
T1 sequence (P48546 22-466): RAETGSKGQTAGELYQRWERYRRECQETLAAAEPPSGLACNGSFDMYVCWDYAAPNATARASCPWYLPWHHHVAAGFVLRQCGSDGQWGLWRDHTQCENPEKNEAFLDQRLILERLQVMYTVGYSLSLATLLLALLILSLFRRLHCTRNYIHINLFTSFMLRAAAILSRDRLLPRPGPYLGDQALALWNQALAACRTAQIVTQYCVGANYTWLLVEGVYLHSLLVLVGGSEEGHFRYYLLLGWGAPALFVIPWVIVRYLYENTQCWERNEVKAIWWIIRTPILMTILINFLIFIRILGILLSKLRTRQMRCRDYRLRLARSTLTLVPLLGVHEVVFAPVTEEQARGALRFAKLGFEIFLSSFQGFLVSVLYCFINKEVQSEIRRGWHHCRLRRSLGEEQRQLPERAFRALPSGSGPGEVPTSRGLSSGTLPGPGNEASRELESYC
Method: Tissue culture. Chinese hamster lung (CHL) fibroblast cells stably transfected with the human GIP receptor were cultured in DMEM tissue culture medium containing 10% (v/v) foetal bovine serum, 1% (v/v) antibiotics (100 U/ml penicillin, 0.1 mg/ml streptomycin). BRIN-BD11 cells were cultured using RPMI-1640 tissue culture medium containing 10% (v/v) foetal bovine serum, 1% (v/v) antibiotics (100 U/ml penicillin, 0.1 mg/ml streptomycin). Cells were maintained in sterile tissue culture flasks (Corning Glass Works, Sunderland, UK) at 37° C. in an atmosphere of 5% CO2 and 95% air using an LEEC incubator (Laboratory Technical Engineering, Nottingham, UK).
Acute studies of cyclic AMP generation. GIP receptor transfected CHL cells were seeded into 12-well plates (Nunc, Roskilde, Denmark) at a density of 1.0×10^5 cells per well. The cells were then allowed to grow for 48 hours before being loaded with tritiated adenine (2 μCi; TRK311, Amersham, Buckinghamshire, UK) and incubated at 37° C. for 6 hours in 1 ml DMEM, supplemented with 0.5% (w/v) […]. The cells were then washed twice with HBS buffer (130 mM NaCl, 20 mM HEPES, 0.9 mM NaHPO4, 0.8 mM MgSO4, 5.4 mM KCl, 1.8 mM CaCl2, 25 mM glucose, 25 μM phenol red, pH 7.4). […]

[2] = 25 nmol/kg/day s.c., 11 days, vs saline

## YAPGTFISDYSIAMDKIHQQDFVNWLLAQKGKKNDWKHNITQ [(Pro^3)GIP]
[1]; 25 nmol/kg/day s.c., 11 days
  HbA1c: significant decreases
  islet hypertrophy: partial correction
  pancreatic insulin stores: significant decreases
[1]; [2]
  plasma glucose concentration: decreases
  plasma insulin concentration: decreases
[1]; 9 days after cessation of treatment
  persistence of beneficial effects after cessation: reversed 9 days after cessation of treatment
[1]; 11 days
  food intake: without any change
[1]; 11 days, did not achieve significance
  decrease in body weight: ~7%
[1]; after 11 days treatment
  circulating insulin during glucose tolerance test: without change
[1]; after 11 days treatment, i.p. glucose 18 mmol/kg
  glucose tolerance: substantially improved
[1]; after 11 days, exogenous insulin 50 U/kg i.p.
  insulin sensitivity: significant improvement of insulin sensitivity
Human GIP receptor
  inhibition of GIP-stimulated cyclic AMP production: inhibited in dose-dependent fashion
